Where two headings read alike, the source gives them in different places.

Assay [1] deals with T1, endothelin receptor (Bos taurus, UniProt P28088).
T1 construct: the suspension was used as a membrane fraction liquid; from tissue; host or cells: bovine cerebellum membrane fraction
T1 sequence (P28088 27-441): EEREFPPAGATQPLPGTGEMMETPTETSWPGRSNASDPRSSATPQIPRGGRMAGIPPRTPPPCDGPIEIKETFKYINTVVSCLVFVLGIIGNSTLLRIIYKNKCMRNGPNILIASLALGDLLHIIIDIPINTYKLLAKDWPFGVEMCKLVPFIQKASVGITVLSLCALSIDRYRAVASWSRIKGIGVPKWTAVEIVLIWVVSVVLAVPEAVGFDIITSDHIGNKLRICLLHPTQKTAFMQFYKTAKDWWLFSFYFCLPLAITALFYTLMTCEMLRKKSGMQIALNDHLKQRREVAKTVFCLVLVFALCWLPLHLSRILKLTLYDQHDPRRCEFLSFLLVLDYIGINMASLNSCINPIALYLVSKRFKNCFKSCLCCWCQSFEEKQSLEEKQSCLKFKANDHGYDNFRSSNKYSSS
Kind of assay: Endothelin receptor binding inhibition (125I-endothelin-1), bovine cerebellum membrane fraction (Test Example 1). As to conditions: read-out: IC₅₀. As for the experimental part:
(§1) The resulting solid substance was prepared as a suspension containing 2 mg/ml of protein, and the suspension was used as a membrane fraction liquid. […]

Assay [2] deals with T2, endothelin receptor (Bos taurus, UniProt P21450).
T2 construct: from tissue
T2 sequence (P21450 21-427): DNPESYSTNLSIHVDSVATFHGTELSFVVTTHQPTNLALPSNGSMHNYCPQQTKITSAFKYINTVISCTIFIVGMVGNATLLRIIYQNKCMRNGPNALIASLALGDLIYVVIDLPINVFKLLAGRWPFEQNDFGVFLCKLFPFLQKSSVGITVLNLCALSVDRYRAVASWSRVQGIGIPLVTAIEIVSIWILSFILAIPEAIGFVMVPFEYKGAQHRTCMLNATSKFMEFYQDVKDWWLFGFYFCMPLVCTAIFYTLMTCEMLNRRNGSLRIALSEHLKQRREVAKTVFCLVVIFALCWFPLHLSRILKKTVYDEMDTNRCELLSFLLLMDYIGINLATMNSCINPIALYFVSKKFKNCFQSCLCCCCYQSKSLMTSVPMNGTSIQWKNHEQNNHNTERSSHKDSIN
Kind of assay: Endothelin receptor binding inhibition (125I-endothelin-1), bovine lung membrane fraction with RES-701-1 added (Test Example 2). As to conditions: read-out: IC₅₀. Here is the method:
as §1

As for `COC(=O)[C@H](Cc1c[nH]c2ccccc12)NC(=O)[C@H](Cc1ccc(O)cc1)NC(=O)[C@H](Cc1ccc(O)cc1)NC(=O)[C@H](CC(N)=O)NC(=O)[C@H](Cc1ccccc1)NC(=O)[C@H](Cc1ccccc1)NC(=O)[C@H](Cc1c[nH]c2ccccc12)NC(=O)[C@@H]1CC(=O)NCC(=O)N[C@@H](CC(N)=O)C(=O)N[C@@H](Cc2c[nH]c3ccccc23)C(=O)N[C@@H](Cc2c[nH]cn2)C(=O)NCC(=O)N[C@@H]([C@@H](C)O)C(=O)N[C@@H](C)C(=O)N2CCC[C@H]2C(=O)N1` [(I-1)], the IC50 amounted to […] at endothelin receptor [1] (Concentration causing 50 % inhibition of endothelin-1 binding, bovine cerebellum tissue membrane fraction, 25°C for 2 hours) and 58 nM at endothelin receptor [2] (Concentration causing 50 % inhibition of endothelin-1 binding, bovine lung tissue membrane fraction, RES-701-1 added at […]).
On to `C[C@@H]1NC(=O)[C@H]([C@@H](C)O)NC(=O)CNC(=O)[C@H](Cc2c[nH]cn2)NC(=O)[C@H](Cc2c[nH]c3ccccc23)NC(=O)[C@H](CC(N)=O)NC(=O)CNC(=O)C[C@@H](C(=O)N[C@@H](Cc2c[nH]c3ccccc23)C(=O)N[C@@H](Cc2ccccc2)C(=O)N[C@@H](Cc2ccccc2)C(=O)N[C@@H](CC(N)=O)C(=O)N[C@@H](Cc2ccc(O)cc2)C(=O)N[C@@H](Cc2ccc(O)cc2)C(=O)N[C@@H](Cc2c[nH]c3ccccc23)C(N)=O)NC(=O)[C@@H]2CCCN2C1=O` [(I-3)], for which the figures for the IC50 at endothelin receptor [1] and on endothelin receptor [2] were 49 nM and greater than 490 nM, respectively.

For the origin of these results see patent publication EP0698614A1, “Endothelin-antagonizing peptide” (KYOWA HAKKO KOGYO CO., LTD., priority 1994, dated 1996).
